Assay [1] has as its target T1, Neutrophil elastase (Homo sapiens) (UniProt P08246).
T1 sequence (whole entry): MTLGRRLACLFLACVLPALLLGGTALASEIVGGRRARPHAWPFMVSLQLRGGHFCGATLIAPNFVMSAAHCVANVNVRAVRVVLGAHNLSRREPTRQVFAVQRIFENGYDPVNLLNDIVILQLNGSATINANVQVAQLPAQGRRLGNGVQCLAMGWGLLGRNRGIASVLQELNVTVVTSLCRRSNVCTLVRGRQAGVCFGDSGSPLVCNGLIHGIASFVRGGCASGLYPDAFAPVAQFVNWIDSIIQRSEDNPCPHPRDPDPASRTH
Nature of the assay: Second-order rate constant (Kobs/[I]) for inactivation was determined.

For assay [2], the target named is T2, Neutrophil elastase (Homo sapiens, UniProt P08246).
T2 sequence (P08246 whole entry): T1 sequence (whole entry)
Nature of the assay: Inhibitory concentration which is required to cause 50% inhibition of human leukocyte elastase (HLE) enzyme.

Assay [3] deals with T1, Neutrophil elastase (Homo sapiens).
Description: Second-order rate constant (Kobs/[I]) for inactivation of Human Leukocyte Elastase was determined
Assay [4] concerns the target T3, Serine protease 1 (Bos taurus, UniProt P00760).
T3 sequence (P00760 whole entry): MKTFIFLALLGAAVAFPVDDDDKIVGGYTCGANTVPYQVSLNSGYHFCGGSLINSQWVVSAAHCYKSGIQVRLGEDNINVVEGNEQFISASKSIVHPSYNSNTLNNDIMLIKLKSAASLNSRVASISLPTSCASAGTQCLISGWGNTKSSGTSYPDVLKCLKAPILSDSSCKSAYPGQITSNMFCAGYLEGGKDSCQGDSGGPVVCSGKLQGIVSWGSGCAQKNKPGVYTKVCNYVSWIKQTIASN
The assay is described as follows: Inhibitory concentration which is required to cause 50% inhibition of Trypsin.

The target of assay [5] is T4, Pancreatic elastase (Sus scrofa, UniProt P08419+P00772). The assay is described as follows: Inhibitory concentration which is required to cause 50% inhibition of Porcine pancreatic elastase (PPE) enzyme. The assay is classed as protein assay.
The target in assay [6] is T5, Chymotrypsinogen A (Bos taurus, UniProt P00766). Nature of the assay: Inhibitory concentration which is required to cause 50% inhibition of alpha-chymotrypsin enzyme.
Assay [7] has as its target T2, Neutrophil elastase. The assay is described as follows: Inhibitory concentration which is required to cause 50% inhibition of human leukocyte elastase (HLE) enzyme; NVT indicates nonvalid test.
Assay [8] addresses T5, Chymotrypsinogen A. The assay is described as follows: Inhibitory concentration which is required to cause 50% inhibition of bovine alpha-chymotrypsin (ChT).
The target of assay [9] is T4, Pancreatic elastase. Nature of the assay: Inhibitory concentration which is required to cause 50% inhibition of porcine pancreatic elastase (PPE). The assay is classed as protein assay.
For assay [10], the target named is T3, Serine protease 1. The assay is described as follows: Inhibitory concentration which is required to cause 50% inhibition of bovine trypsin (Trp).

What is called IC50 is the point on the concentration scale where inhibition reaches its midpoint. Read a low IC50 as inhibition by little substance.

SMILES strings stand for the structures.

Take `CO[C@H]1C(=O)N2C(C(=O)OC(C)(C)C)=C(COC(C)=O)C[S@+]([O-])[C@H]12`: the K obs / 1 in assay [1] stood at 500 M⁻¹ s⁻¹. Besides, in [2], half-maximal inhibition (IC50) was put at 4 µM.

The molecule `CCCO[C@H]1C(=O)N2C(C(=O)OC(C)(C)C)=C(COC(C)=O)CS[C@H]12` yielded an IC50 in assay [2] of over 40 µM.

In assay [2], `CC(=O)OCC1=C(C(=O)OC(C)(C)C)N2C(=O)[C@H](OCc3ccccc3)[C@H]2S(=O)(=O)C1` came in with an IC50 of over 10 µM.

`CCCCO[C@H]1C(=O)N2C(C(=O)OC(C)(C)C)=C(COC(C)=O)CS(=O)(=O)[C@H]12` showed a half-inhibitory concentration (IC50) in [2] of over 40 µM.

`CO[C@H]1C(=O)N2C(C(=O)OC(C)(C)C)=C(COC(C)=O)CS(=O)(=O)[C@H]12` came in with a K obs / 1 in assay [3] of 19000 M⁻¹ s⁻¹. In [2], the IC50 is 1 µM.

`CCC(C)O[C@H]1C(=O)N2C(C(=O)OC(C)(C)C)=C(COC(C)=O)CS(=O)(=O)[C@H]12` (some centres undefined) returned an IC50 in assay [2] of 28 µM.

In [2], `O=C(OCc1ccccc1)[C@H]1/C(=C/CO)O[C@@H]2CC(=O)N21` displayed an IC50 of 4 µM.

The molecule `CCO[C@H]1C(=O)N2C(C(=O)OC(C)(C)C)=C(COC(C)=O)CS[C@H]12` showed a concentration for half-maximal inhibition (IC50) in assay [2] of over 40 µM.

Take `CO[C@H]1C(=O)N2C(C(=O)OC(C)(C)C)=C(COC(C)=O)CS[C@H]12`: in assay [2], the midpoint of inhibition, the IC50, lay at 10 µM. This counts as double-digit micromolar.

For `COC(=O)N[C@H]1C(=O)N2C(C(=O)OC(C)(C)C)=C(COC(C)=O)CS(=O)(=O)[C@H]12`, the K obs / 1 in assay [1] turned out to be 1600 M⁻¹ s⁻¹. This molecule yielded an IC50 in assay [2] of 4 µM.

Turning to `CC(=O)OCC1=C(C(=O)OC(C)(C)C)N2C(=O)[C@H](OCCc3ccccc3)[C@H]2S(=O)(=O)C1`, the IC50 in assay [2] was 5 µM. In other words, the single-digit micromolar range.

With `CC(=O)OCC1=C(C(=O)OC(C)(C)C)N2C(=O)[C@H](F)[C@H]2S(=O)(=O)C1`, the 50% inhibitory concentration (IC50) in assay [2] stood at 0.06 µM.

In the case of `CCC(C)O[C@H]1C(=O)N2C(C(=O)OC(C)(C)C)=C(COC(C)=O)CS[C@H]12` (some centres undefined), the half-maximal inhibitory concentration (IC50) in assay [2] is over 40 µM.

`CCC(=O)O[C@H]1C(=O)N2C(C(=O)OC(C)(C)C)=C(COC(C)=O)CS[C@H]12`: 36 µM corresponded to half-maximal inhibition in [2] (IC50).

For `CNC(=O)O[C@H]1C(=O)N2C(C(=O)OC(C)(C)C)=C(COC(C)=O)CS(=O)(=O)[C@H]12`, in [3], the K obs / 1 is 180 M⁻¹ s⁻¹. Also, half-maximal inhibition in [2] (IC50) was put at 1 µM.

The molecule `CC(=O)OCC1=C(C(=O)OC(C)(C)C)N2C(=O)[C@H](Cl)[C@H]2SC1` had an IC50 in assay [2] of 2 µM. This counts as single-digit micromolar.

As to `CC(=O)OCC1=C(C(=O)OC(C)(C)C)N2C(=O)[C@H](OC(=O)Cc3ccccc3)[C@H]2S(=O)(=O)C1`, the 50% inhibitory concentration (IC50) was over 40 µM in [4], 20 µM in assay [5], 10 µM in [2] and 4 µM in [6].

Molecule `CO[C@@H]1C(=O)N2C(C(=O)OC(C)(C)C)=C(COC(C)=O)CS(=O)(=O)[C@H]12` showed an IC50 in assay [2] of over 40 µM.

Regarding `O=C(O)[C@H]1/C(=C/CO)O[C@@H]2CC(=O)N21` [CLAVULANIC ACID], the IC50 in [2] is under 40 µM.

For `CC(=O)OCC1=C(C(=O)OC(C)(C)C)N2C(=O)[C@@H](NC(=O)C(F)(F)F)[C@H]2S(=O)(=O)C1`, the half-maximal inhibitory concentration (IC50) in assay [2] is over 40 µM.

In turn, `CC(=O)OCC1=C(C(=O)OC(C)(C)C)N2C(=O)C[C@H]2S(=O)(=O)C1` returned an IC50 in assay [2] of over 40 µM.

Take `CC(=O)OCC1=C(C(=O)OC(C)(C)C)N2C(=O)[C@H](OS(=O)(=O)c3ccc(C)cc3)[C@H]2SC1`: the IC50 result in assay [7] is recorded as “Non valid test”.

`CC(=O)OCC1=C(C(=O)OC(C)(C)C)N2C(=O)[C@H](Cl)[C@H]2S(=O)(=O)C1`: the K obs / 1 in assay [3] turned out to be 161000 M⁻¹ s⁻¹. For the same molecule, 0.04 µM corresponded to half-maximal inhibition in assay [2] (IC50).

In assay [2], `CC(=O)OCC1=C(C(=O)OC(C)(C)C)N2C(=O)[C@H](OC(=O)COc3ccccc3)[C@H]2S(=O)(=O)C1` had an IC50 of 6 µM.

As for `CCC(=O)O[C@H]1C(=O)N2C(C(=O)OC(C)(C)C)=C(COC(C)=O)CS(=O)(=O)[C@H]12`, the K obs / 1 in [3] was found to be 80 M⁻¹ s⁻¹. This molecule returned an IC50 in assay [2] of 10 µM.

`CC(=O)OCC1=C(C(=O)OC(C)(C)C)N2C(=O)[C@H](OC(C)=O)[C@H]2S(=O)(=O)C1` showed a K obs / 1 in assay [3] of 950 M⁻¹ s⁻¹. In addition, the half-maximal inhibitory concentration (IC50) is over 40 µM in assay [8], over 40 µM in assay [4], 2 µM in assay [9] and 6 µM in [2].

Molecule `CC(=O)OCC1=C(C(=O)OC(C)(C)C)N2C(=O)[C@H](Oc3ccccc3)[C@H]2S(=O)(=O)C1` displayed a K obs / 1 in [3] of 720 M⁻¹ s⁻¹. For the same molecule, in assay [2], inhibition was half-maximal at 1 µM (IC50).

In assay [2], `CC(=O)OCC1=C(C(=O)OC(C)(C)C)N2C(=O)[C@@H](NC(=O)Cc3cccs3)[C@H]2S(=O)(=O)C1` showed an IC50 of over 40 µM.

In [1], `CC(=O)OCC1=C(C(=O)OC(C)(C)C)N2C(=O)[C@H](OC=O)[C@H]2S(=O)(=O)C1` had a K obs / 1 of 59000 M⁻¹ s⁻¹. For the same molecule, the IC50 in assay [9] is 0.4 µM; in [10], over 40 µM; in assay [2], 0.3 µM.

Molecule `CCCC[C@H]1C(=O)N2C(C(=O)OC(C)(C)C)=C(COC(C)=O)CS(=O)(=O)[C@H]12` showed an IC50 in [2] of 40 µM. That is a double-digit micromolar value.

On to `CCCCO[C@H]1C(=O)N2C(C(=O)OC(C)(C)C)=C(COC(C)=O)CS[C@H]12`, for which, in assay [2], the IC50 was over 40 µM.

`CC(=O)OCC1=C(C(=O)OC(C)(C)C)N2C(=O)[C@@H](N)[C@H]2SC1` returned an IC50 in assay [2] of over 40 µM.

For `CC(=O)OCC1=C(C(=O)OC(C)(C)C)N2C(=O)[C@H](NC=O)[C@H]2S(=O)(=O)C1`, the K obs / 1 in assay [1] amounted to 1200 M⁻¹ s⁻¹. The molecule further showed an IC50 in [2] of 4 µM.

With `CC(=O)OCC1=C(C(=O)OC(C)(C)C)N2C(=O)[C@H](NC(=O)Cc3cccs3)[C@H]2S(=O)(=O)C1`, the IC50 in [2] was over 40 µM.

Molecule `CC(=O)OCC1=C(C(=O)OC(C)(C)C)N2C(=O)[C@H](NC(=O)C(F)(F)F)[C@H]2S(=O)(=O)C1` displayed an IC50 in assay [2] of 2 µM.

In assay [2], `CCC(CC)O[C@H]1C(=O)N2C(C(=O)OC(C)(C)C)=C(COC(C)=O)CS(=O)(=O)[C@H]12` came in with an IC50 of over 40 µM.

As for `CC(=O)OCC1=C(C(=O)OC(C)(C)C)N2C(=O)[C@H](OC(=O)c3ccccc3)[C@H]2S(=O)(=O)C1`, the IC50 in [2] was over 40 µM.

`CCO[C@H]1C(=O)N2C(C(=O)OC(C)(C)C)=C(COC(C)=O)C[S+]([O-])[C@H]12` (stereo in doubt; 7b) showed an IC50 in assay [2] of over 40 µM.

`CC(=O)OCC1=C(C(=O)OC(C)(C)C)N2C(=O)[C@H](F)[C@H]2SC1` returned an IC50 in [2] of 20 µM.

Consider `CO[C@H]1C(=O)N2C(C(=O)OC(C)(C)C)=C(COC(C)=O)C[S@@+]([O-])[C@H]12`, for which the IC50 in assay [2] was over 40 µM.

In assay [2], `CCO[C@H]1C(=O)N2C(C(=O)OC(C)(C)C)=C(COC(C)=O)C[S+]([O-])[C@H]12` (stereo in doubt; 6b) returned an IC50 of 40 µM.
